Results reported in PMC4077706, “Lifting the Mask: Identification of New Small Molecule Inhibitors of Uropathogenic Escherichia coli Group 2 Capsule Biogenesis” (PLoS ONE, 2014).
Read-outs that look alike come from different tables or passages of the source.

What was measured:
[1] = system: Bladder carcinoma 5637 cells; type: cell-based
Description: Testing was performed essentially as previously described, [44]. Concentration-response testing was performed over a range 0.58–300 µM in a […] plate format. Bladder carcinoma 5637 cells (ATCC HTB-9) were added to the compounds, and 72 hrs later cell viability was measured using CellTiter Glo (Promega). […] Hyamine was used as a positive cytotoxic control. All wells contained 0.5% DMSO.

[2] = system: K1 antigen of E. coli UTI89; assay: K1 antigen dot blot; type: cell-based, Escherichia coli; conditions: 100 µM
Description: K1 antigen was detected by dot blot assays of culture extracts probed with anti-K1 H46 serum. The assay was performed as previously described. The experiment was repeated twice with similar results, and a representative dot blot is shown.

[3] = system: E. coli strains 536 (K15), CFT073 (K2), DS17 (K5), UTI89 (K1); assay: Visualization of capsule using Alcian blue staining; type: cell-based, Escherichia coli; conditions: 200 µM
[4] = target: T1, Adenosine A1 (Homo sapiens, UniProt P30542); assay: Radioligand binding 200510; conditions: 10 µM
T1 construct: host or cells: CHO cells

[5] = target: T2, Adenosine A2A (Homo sapiens, UniProt P29274); assay: Radioligand binding 200610; conditions: 10 µM
T2 construct: host or cells: HEK-293 cells

[6] = target: Adenosine A3 (Homo sapiens, UniProt P0DMS8); type: binding; conditions: 10 µM
[7] = target: T3, Adrenergic α1A (Rattus norvegicus, UniProt P43140); assay: Radioligand binding 203100; conditions: 10 µM
T3 construct: Wistar Rat submaxillary gland; tissue Eurofins Panlabs (assay Cat #) 203100; host or cells: Wistar rat submaxillary gland
T3 sequence (P43140 whole entry): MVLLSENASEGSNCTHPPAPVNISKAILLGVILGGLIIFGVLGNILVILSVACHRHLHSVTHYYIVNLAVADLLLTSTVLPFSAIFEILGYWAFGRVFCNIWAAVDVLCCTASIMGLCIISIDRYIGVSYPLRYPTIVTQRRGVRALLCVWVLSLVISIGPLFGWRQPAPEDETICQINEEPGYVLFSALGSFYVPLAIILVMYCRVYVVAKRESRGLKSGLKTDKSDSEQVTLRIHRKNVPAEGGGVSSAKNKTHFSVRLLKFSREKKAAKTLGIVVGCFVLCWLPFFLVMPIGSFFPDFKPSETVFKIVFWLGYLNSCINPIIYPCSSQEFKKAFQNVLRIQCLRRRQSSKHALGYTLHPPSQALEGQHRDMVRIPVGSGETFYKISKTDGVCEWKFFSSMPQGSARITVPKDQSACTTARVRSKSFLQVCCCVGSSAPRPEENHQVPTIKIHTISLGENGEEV

[8] = target: T4, Adrenergic α1B (Rattus norvegicus, UniProt P15823); type: binding; conditions: 10 µM
T4 construct: Wistar Rat liver; tissue Eurofins Panlabs (assay Cat #) 203200; host or cells: Wistar rat liver

[9] = target: T5, Adrenergic β1 (Homo sapiens, UniProt P08588); type: binding; conditions: 10 µM
T5 construct: host or cells: CHO-K1 cells
T5 sequence (P08588 whole entry): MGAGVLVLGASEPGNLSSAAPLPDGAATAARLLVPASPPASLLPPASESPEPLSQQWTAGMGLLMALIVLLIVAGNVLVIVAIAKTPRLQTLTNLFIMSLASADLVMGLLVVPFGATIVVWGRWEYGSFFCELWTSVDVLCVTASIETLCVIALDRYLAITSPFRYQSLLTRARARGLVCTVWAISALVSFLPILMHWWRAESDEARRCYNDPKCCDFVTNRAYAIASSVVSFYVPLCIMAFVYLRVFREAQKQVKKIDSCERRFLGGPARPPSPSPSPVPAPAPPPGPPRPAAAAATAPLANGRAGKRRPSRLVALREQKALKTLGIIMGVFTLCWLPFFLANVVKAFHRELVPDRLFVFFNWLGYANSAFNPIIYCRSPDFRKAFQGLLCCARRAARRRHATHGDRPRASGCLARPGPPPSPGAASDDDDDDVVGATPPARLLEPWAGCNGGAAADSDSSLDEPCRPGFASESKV

[10] = target: T6, Bradykinin B1 (Homo sapiens, UniProt P46663); type: binding; conditions: 10 µM
T6 construct: Human IMR-90 cells; host or cells: IMR-90 cells
T6 sequence (P46663 whole entry): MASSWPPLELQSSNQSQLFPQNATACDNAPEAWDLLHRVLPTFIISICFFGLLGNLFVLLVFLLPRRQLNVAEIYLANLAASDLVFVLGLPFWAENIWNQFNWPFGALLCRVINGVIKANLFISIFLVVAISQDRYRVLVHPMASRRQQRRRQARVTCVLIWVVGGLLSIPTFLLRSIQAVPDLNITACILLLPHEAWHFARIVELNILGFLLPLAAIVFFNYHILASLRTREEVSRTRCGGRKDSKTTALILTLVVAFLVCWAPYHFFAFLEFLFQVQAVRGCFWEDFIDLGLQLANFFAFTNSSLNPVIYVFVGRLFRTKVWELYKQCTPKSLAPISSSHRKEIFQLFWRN

[11] = target: Calcium Channel L-Type, Benzothiazepine (Rattus norvegicus, UniProt P22002); type: binding; conditions: 10 µM
[12] = target: Cannabinoid CB1 (Homo sapiens, UniProt P21554); type: binding; conditions: 10 µM
[13] = target: T7, Dopamine D1 (Homo sapiens, UniProt P21728); type: binding; conditions: 10 µM
T7 construct: host or cells: CHO cells

[14] = target: T8, Endothelin ETA (Homo sapiens, UniProt P25101); type: binding; conditions: 10 µM
T8 construct: host or cells: CHO-K1 cells

[15] = target: T9, Epidermal Growth Factor (EGF) (Homo sapiens, UniProt P00533); assay: Radioligand binding 225510; conditions: 10 µM
T9 construct: Human A431 cells; host or cells: A431 cells

[16] = system: GABAA, Flunitrazepam, Central; assay: Radioligand binding 226600; set-up: species or system rat; conditions: 10 µM
[17] = system: Glutamate, Kainate; assay: Radioligand binding 232700; set-up: species or system rat; conditions: 10 µM
[18] = target: T10, Histamine H1 (Homo sapiens, UniProt P35367); type: binding; conditions: 10 µM
T10 construct: host or cells: CHO-K1 cells
T10 sequence (P35367 whole entry): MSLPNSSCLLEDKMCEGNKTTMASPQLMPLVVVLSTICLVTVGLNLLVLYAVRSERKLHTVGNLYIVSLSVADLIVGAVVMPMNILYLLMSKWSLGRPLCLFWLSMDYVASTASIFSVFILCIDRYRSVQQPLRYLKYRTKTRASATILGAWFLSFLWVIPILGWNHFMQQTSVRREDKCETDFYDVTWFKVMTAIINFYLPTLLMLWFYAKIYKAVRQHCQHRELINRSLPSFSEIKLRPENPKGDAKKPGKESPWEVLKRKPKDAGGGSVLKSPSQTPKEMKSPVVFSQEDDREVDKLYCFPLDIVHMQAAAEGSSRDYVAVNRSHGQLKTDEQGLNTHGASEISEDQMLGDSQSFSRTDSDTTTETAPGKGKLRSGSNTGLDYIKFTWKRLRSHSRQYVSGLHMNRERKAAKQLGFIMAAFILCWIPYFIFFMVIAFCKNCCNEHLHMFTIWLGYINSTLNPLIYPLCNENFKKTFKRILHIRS

[19] = target: T11, Leukotriene, Cysteinyl CysLT1 (Homo sapiens, UniProt Q9Y271); assay: Radioligand binding 250460; conditions: 10 µM
T11 construct: host or cells: CHO-K1 cells
T11 sequence (Q9Y271 whole entry): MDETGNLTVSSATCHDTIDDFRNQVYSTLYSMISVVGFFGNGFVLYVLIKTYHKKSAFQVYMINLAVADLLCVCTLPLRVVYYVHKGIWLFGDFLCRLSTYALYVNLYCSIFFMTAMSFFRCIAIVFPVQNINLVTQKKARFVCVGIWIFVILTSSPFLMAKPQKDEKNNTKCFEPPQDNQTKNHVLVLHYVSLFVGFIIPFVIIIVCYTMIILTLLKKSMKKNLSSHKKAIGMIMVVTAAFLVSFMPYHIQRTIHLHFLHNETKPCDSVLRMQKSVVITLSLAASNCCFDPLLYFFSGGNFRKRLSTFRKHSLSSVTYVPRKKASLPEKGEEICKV

[20] = target: T12, Muscarinic M1 (Homo sapiens, UniProt P11229); assay: Radioligand binding 252610; conditions: 10 µM
T12 construct: host or cells: CHO-K1 cells

[21] = target: T13, Muscarinic M2 (Homo sapiens, UniProt P08172); assay: Radioligand binding 252710; conditions: 10 µM
T13 construct: host or cells: CHO-K1 cells

[22] = system: Nicotinic Acetylcholine; assay: Radioligand binding 258590; set-up: species or system human; conditions: 10 µM
[23] = target: Nicotinic Acetylcholine α1, Bungarotoxin (Homo sapiens, UniProt P02708+P07510+Q07001); type: binding; conditions: 10 µM
Nicotinic Acetylcholine α1, Bungarotoxin, sequence (P11230 24-501): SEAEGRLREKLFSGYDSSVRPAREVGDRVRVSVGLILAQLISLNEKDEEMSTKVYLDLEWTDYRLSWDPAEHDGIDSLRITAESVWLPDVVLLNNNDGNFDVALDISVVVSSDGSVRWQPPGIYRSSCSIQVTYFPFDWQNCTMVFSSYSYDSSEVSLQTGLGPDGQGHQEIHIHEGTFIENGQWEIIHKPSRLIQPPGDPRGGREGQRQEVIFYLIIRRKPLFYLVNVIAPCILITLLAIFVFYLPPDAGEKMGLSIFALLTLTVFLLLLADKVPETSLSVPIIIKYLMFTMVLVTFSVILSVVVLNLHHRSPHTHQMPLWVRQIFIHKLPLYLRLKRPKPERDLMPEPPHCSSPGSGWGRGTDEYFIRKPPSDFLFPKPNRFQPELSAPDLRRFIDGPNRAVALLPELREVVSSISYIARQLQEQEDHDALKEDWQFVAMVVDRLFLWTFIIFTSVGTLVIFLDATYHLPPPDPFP
Nicotinic Acetylcholine α1, Bungarotoxin, sequence (P02708 21-457): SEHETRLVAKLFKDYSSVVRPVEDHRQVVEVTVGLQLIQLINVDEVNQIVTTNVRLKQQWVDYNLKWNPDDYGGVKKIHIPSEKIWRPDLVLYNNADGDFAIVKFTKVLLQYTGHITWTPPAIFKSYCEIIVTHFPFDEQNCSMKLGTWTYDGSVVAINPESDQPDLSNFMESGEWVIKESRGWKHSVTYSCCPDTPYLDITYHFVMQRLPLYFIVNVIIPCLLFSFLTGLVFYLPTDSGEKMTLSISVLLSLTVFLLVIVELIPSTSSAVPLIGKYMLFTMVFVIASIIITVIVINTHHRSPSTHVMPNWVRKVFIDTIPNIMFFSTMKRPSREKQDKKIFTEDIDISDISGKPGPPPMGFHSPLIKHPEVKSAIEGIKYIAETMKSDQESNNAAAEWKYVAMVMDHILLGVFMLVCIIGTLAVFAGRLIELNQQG
Nicotinic Acetylcholine α1, Bungarotoxin, sequence (P07510 23-517): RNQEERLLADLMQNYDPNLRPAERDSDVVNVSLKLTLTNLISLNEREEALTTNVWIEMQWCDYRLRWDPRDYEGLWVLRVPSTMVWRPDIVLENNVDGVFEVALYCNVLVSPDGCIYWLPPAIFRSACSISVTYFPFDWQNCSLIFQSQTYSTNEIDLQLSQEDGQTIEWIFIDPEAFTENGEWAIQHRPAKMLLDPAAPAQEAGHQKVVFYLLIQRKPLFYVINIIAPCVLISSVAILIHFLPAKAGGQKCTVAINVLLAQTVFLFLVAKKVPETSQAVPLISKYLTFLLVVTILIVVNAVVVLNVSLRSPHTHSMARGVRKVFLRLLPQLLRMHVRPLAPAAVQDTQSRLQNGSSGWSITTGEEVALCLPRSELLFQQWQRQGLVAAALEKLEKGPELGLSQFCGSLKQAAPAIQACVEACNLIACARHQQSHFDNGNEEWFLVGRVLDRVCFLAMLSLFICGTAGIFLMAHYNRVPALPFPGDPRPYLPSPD
Nicotinic Acetylcholine α1, Bungarotoxin, sequence (Q07001 22-517): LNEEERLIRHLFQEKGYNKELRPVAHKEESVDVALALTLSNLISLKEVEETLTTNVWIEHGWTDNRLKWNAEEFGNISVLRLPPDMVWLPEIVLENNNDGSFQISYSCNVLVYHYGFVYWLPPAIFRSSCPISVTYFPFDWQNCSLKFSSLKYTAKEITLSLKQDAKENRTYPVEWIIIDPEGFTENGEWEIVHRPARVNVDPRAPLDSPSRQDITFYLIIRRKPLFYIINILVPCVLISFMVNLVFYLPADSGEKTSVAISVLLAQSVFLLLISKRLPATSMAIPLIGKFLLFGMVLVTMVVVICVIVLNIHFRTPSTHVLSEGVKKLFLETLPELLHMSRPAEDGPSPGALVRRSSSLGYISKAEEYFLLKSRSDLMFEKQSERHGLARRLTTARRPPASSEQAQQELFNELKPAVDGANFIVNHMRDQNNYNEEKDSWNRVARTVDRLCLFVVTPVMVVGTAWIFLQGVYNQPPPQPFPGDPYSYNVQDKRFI

[24] = target: T14, Opiate µ(OP3, MOP) (Homo sapiens, UniProt P35372); type: binding; conditions: 10 µM
T14 construct: host or cells: CHO-K1 cells
T14 sequence (P35372 whole entry): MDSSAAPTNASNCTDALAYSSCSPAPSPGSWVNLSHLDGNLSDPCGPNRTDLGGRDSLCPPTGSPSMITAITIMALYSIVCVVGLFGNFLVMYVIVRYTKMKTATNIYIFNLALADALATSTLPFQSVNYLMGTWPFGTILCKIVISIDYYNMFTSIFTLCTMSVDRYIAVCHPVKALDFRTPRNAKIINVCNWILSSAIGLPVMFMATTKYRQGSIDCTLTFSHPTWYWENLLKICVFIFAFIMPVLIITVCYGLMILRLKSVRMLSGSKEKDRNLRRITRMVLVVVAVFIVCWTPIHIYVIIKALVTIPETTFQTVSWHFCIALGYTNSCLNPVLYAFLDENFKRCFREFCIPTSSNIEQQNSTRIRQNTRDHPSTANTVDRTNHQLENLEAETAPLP

[25] = target: T15, Platelet Activating Factor (PAF) (Homo sapiens, UniProt P25105); type: binding; conditions: 10 µM
T15 construct: Human platelets; host or cells: human platelets

[26] = target: T16, Potassium Channel [KATP] (Cricetus cricetus, UniProt Q09427); type: binding, hamster; conditions: 10 µM
T16 construct: Hamster pancreatic HIT-T15 beta; host or cells: HIT-T15 hamster pancreatic beta cells

[27] = system: Purinergic P2Y; assay: Radioligand binding 268810; set-up: species or system rat; conditions: 10 µM
[28] = target: T17, Serotonin (5-Hydroxytryptamine) 5-HT1A (Homo sapiens, UniProt P08908); assay: Radioligand binding 271110; conditions: 10 µM
T17 construct: host or cells: CHO-K1

[29] = target: T18, Tachykinin NK1 (Homo sapiens, UniProt P25103); assay: Radioligand binding 255520; conditions: 10 µM
T18 construct: host or cells: CHO

[30] = target: T19, Transporter, Norepinephrine (NET) (Homo sapiens, UniProt P23975); type: binding; conditions: 10 µM
T19 construct: host or cells: MDCK

[31] = Human
[32] = Mouse
[33] = target: Transporter, Dopamine (DAT) (Homo sapiens, UniProt Q01959); type: binding; set-up: host or cells: CHO-K1; conditions: 10 µM
[34] = target: Opiate δ1 (OP1, DOP) (Homo sapiens, UniProt P41143); type: binding; set-up: host or cells: HEK-293 cells; conditions: 10 µM
Opiate δ1 (OP1, DOP), sequence (P41143 whole entry): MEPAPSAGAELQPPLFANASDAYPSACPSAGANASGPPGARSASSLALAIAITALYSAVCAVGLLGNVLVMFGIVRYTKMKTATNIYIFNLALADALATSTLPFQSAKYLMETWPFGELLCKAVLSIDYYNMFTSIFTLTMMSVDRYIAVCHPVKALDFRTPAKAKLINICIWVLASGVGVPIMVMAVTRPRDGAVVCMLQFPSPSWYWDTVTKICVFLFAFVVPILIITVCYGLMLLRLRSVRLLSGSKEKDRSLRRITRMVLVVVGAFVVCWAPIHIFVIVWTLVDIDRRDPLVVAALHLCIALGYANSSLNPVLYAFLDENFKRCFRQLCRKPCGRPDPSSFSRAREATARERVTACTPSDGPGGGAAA

## CCOc1ccc(-c2cc(NC(=O)c3c(F)cccc3F)c(C(=O)O)s2)cc1 [DU011]
[1]
  Selectivity (CC50/IC50): 13.3
[1]; 5637 cells, 72 hrs, ± SEM, read-out: Cytotoxicity (CC50)
  CC50: 51.6 ± 13.6 µM
[2]
  K1 reactive material, whole-cell anti-K1 dot blot: reduces K1 reactive material to levels comparable to those of genetic capsule mutants
[3]; CFT073 (K2 serotype)
  reduction in capsular material from CFT073: slightly less than the other serotypes tested
[3]; strains 536, CFT073, DS17, UTI89
  capsular material, alcian blue stained gel: capsule was reduced in each strain
[4]
  % Inh.: -17%
[5]
  % Inh.: -6%
[6]
  % Inh.: -5%
[7]
  % Inh.: -3%
[8]
  % Inh.: 14%
[9]
  % Inh.: 3%
[10]
  % Inh.: 12%
[11]
  % Inh.: -1%
[12]
  % Inh.: 20%
[13]
  % Inh.: 4%
[14]
  % Inh.: -4%
[15]
  % Inh.: 8%
[16]
  % Inh.: 12%
[17]
  % Inh.: 3%
[18]
  % Inh.: -16%
[19]
  % Inh.: 19%
[20]
  % Inh.: 10%
[21]
  % Inh.: 5%
[22]
  % Inh.: 22%
[23]
  % Inh.: 8%
[24]
  % Inh.: 1%
[25]
  % Inh.: -1%
[26]
  % Inh.: 12%
[27]
  % Inh.: 1%
[28]
  % Inh.: 11%
[29]
  % Inh.: 7%
[30]
  % Inh.: 58%
[31]
  Hepatic Microsome Stability, percent remaining at 1 hr: 89.64%
Donor pH 5.0, acceptor pH 7.4
  PAMPA Permeability Pe: 14 ×10⁻⁶ cm/s
Donor pH 6.2, acceptor pH 7.4
  PAMPA Permeability Pe: 209 ×10⁻⁶ cm/s
Donor pH 7.4, acceptor pH 7.4
  PAMPA Permeability Pe: 52 ×10⁻⁶ cm/s
[32]
  Plasma Stability, percent remaining at 3 hrs: 78.39%
[33]
  % Inh.: -13%
[34]
  % Inh.: 10%
